From US20230085307A1, “PYRIDAZINONE COMPOUND AND HERBICIDE” (NISSAN CHEMICAL CORPORATION, priority 2019, published 2023)

How the values were obtained:
oval-leafed pondweed [1] = test: Test Example 1: herbicidal activity, application before weed generation under submerged conditions (Table 16, symbol C); type: in vivo, oval-leafed pondweed (Monochoria vaginalis); details: for Herbicidal effect on C: oval-leafed pondweed (grade 0-5): 320 g/ha applied herbicide
Outline: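 Emulsion formulation, water-diluted to set dose, was put onto the flooded surface (4 cm depth, alluvial soil) the same day weeds were sown and 2.5-leaf rice transplanted. After 3 weeks at 25-30 °C under glass, each species was rated 0 (≤5% kill) to 5 (≥90% kill).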

late watergrass = test: Test Example 2: herbicidal activity, application during weed generation under submerged conditions (Table 17, symbol A); type: in vivo, late watergrass (Echinochloa oryzicola); details: application during weed generation, submerged conditions
Outline: (§1)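 3-wk visual-criteria score after one water-surface dose. Emulsion formulation, water-diluted to set rate; applied at 1–2 leaf stage; alluvial soil, 4 cm standing water; seeds co-sown; greenhouse 25–30° C.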

oval-leafed pondweed [2] = test: Test Example 2: herbicidal activity, application during weed generation under submerged conditions (Table 17, symbol C); type: in vivo, oval-leafed pondweed (Monochoria vaginalis); details: application during weed generation, submerged conditions
Outline: as §1

rice flat sedge = test: Test Example 3: herbicidal effect by foliage application, Wagner pot (Table 18, symbol E); type: in vivo, rice flat sedge (Cyperus iria); details: for herbicidal effect on E: rice flat sedge: amount of applied herbicide 320 g/ha
Outline: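 Plants were sown in alluvial soil held under 0.1–0.5 cm standing water and grown 14 days in a greenhouse at 25–30 °C. An emulsifiable formulation, water-diluted to the set dose, was then sprayed onto the foliage, and effects were scored three weeks later using previously defined criteria.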

green foxtail [3] = test: Test Example 4: herbicidal effect by soil treatment (Table 19, symbol G); type: in vivo, green foxtail (Setaria viridis); details: for herbicidal effect on G: green foxtail: amount of applied herbicide 320 g/ha
Outline: (§2)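 Step 1: sow seeds in sterilized diluvial soil, cover ~1.5 cm. Step 2: spray diluted emulsion onto soil surface at predetermined rate. Step 3: greenhouse, 25–30° C, three weeks. Step 4: grade effect on each plant by earlier criteria.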

wild oat = test: Test Example 4: herbicidal effect by soil treatment (Table 19, symbol I); type: in vivo, wild oat (Avena fatua); details: for herbicidal effect on I: wild oat: amount of applied herbicide 320 g/ha
Outline: as §2

blackgrass [4] = test: Test Example 4: herbicidal effect by soil treatment (Table 19, symbol J); type: in vivo, blackgrass (Alopecurus myosuroides); details: for herbicidal effect on J: blackgrass: amount of applied herbicide 320 g/ha
Outline: as §2

Italian ryegrass = test: Test Example 4: herbicidal effect by soil treatment (Table 19, symbol K); type: in vivo, Italian ryegrass (Lolium multiflorum); details: for herbicidal effect on K: Italian ryegrass: amount of applied herbicide 320 g/ha
Outline: as §2

redroot pigweed [5] = test: Test Example 4: herbicidal effect by soil treatment (Table 19, symbol N); type: in vivo, redroot pigweed (Amaranthus retroflexus); details: for herbicidal effect on N: redroot pigweed: amount of applied herbicide 320 g/ha
Outline: as §2

chickweed [6] = test: Test Example 4: herbicidal effect by soil treatment (Table 19, symbol P); type: in vivo, common chickweed (Stellaria media); details: for herbicidal effect on P: chickweed: amount of applied herbicide 320 g/ha
Outline: as §2

persian speedwell = test: Test Example 4: herbicidal effect by soil treatment (Table 19, symbol R); type: in vivo, Persian speedwell (Veronica persica); details: for herbicidal effect on R: persian speedwell: amount of applied herbicide 320 g/ha
Outline: as §2

green foxtail [7] = test: Test Example 5: herbicidal effect by foliage application, plastic box (Table 20, symbol G); type: in vivo, green foxtail (Setaria viridis); details: foliage application; for G: green foxtail, herbicidal effect (criteria 0-5): AAH 320 g/ha, evaluated three weeks after application; for G: green foxtail, herbicidal effect grade: three weeks after application
Outline: (§3)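 Foliar spray test: emulsion formulation diluted in water to a set application rate, sprayed onto 14-day-old plants raised in diluvial soil at 25° C to 30° C under glass. Both herbicidal effect and crop effect rated visually three weeks later.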

barnyard grass = test: Test Example 5: herbicidal effect by foliage application, plastic box (Table 20, symbol H); type: in vivo, barnyard grass (Echinochloa crus-galli); details: foliage application; for H: barnyard grass, herbicidal effect (criteria 0-5): AAH 320 g/ha, evaluated three weeks after application; for H: barnyard grass, herbicidal effect grade: three weeks after application
Outline: as §3

blackgrass [8] = test: Test Example 5: herbicidal effect by foliage application, plastic box (Table 20, symbol J); type: in vivo, blackgrass (Alopecurus myosuroides); details: foliage application; for J: blackgrass, herbicidal effect (criteria 0-5): AAH 320 g/ha, evaluated three weeks after application; for J: blackgrass, herbicidal effect grade: three weeks after application
Outline: as §3

redroot pigweed [9] = test: Test Example 5: herbicidal effect by foliage application, plastic box (Table 20, symbol N); type: in vivo, redroot pigweed (Amaranthus retroflexus); details: foliage application; for N: redroot pigweed, herbicidal effect (criteria 0-5): AAH 320 g/ha, evaluated three weeks after application; for N: redroot pigweed, herbicidal effect grade: three weeks after application
Outline: as §3

chickweed [10] = test: Test Example 5: herbicidal effect by foliage application, plastic box (Table 20, symbol P); type: in vivo, common chickweed (Stellaria media); details: foliage application; for P: chickweed, herbicidal effect (criteria 0-5): AAH 320 g/ha, evaluated three weeks after application; for P: chickweed, herbicidal effect grade: three weeks after application
Outline: as §3

[11] = amount of applied herbicide 274 g/ha
[12] = amount of applied herbicide 80 g/ha

Structure (SMILES) | Herbicidal effect on C: oval-leafed pondweed (grade 0-5) (oval-leafed pondweed [1]) | herbicidal effect rating, A: late watergrass (late watergrass; AAH 320 g/ha) | herbicidal effect rating, C: oval-leafed pondweed (oval-leafed pondweed [2]; AAH 320 g/ha) | herbicidal effect on E: rice flat sedge (rice flat sedge) | herbicidal effect on G: green foxtail (green foxtail [3]) | herbicidal effect on I: wild oat (wild oat) | herbicidal effect on J: blackgrass (blackgrass [4]) | herbicidal effect on K: Italian ryegrass (Italian ryegrass) | herbicidal effect on N: redroot pigweed (redroot pigweed [5]) | herbicidal effect on P: chickweed (chickweed [6]) | herbicidal effect on R: persian speedwell (persian speedwell) | G: green foxtail, herbicidal effect (criteria 0-5) (green foxtail [7]) | H: barnyard grass, herbicidal effect (criteria 0-5) (barnyard grass) | J: blackgrass, herbicidal effect (criteria 0-5) (blackgrass [8]) | N: redroot pigweed, herbicidal effect (criteria 0-5) (redroot pigweed [9]) | P: chickweed, herbicidal effect (criteria 0-5) (chickweed [10]) | other results
CCCC(=O)Oc1c(C)nn(C)c(=O)c1-c1c(-c2ccc(F)c(F)c2)sc2ccc(F)cc12 [2-345] | 3 (Herbicidal rate of 40% or more and less than 70%) | 5 (Herbicidal rate of 90% or more (almost completely withered)) | 4 (Herbicidal rate of 70% or more and less than 90%) | 5 (Herbicidal rate of 90% or more (almost completely withered)) | 5 (Herbicidal rate of 90% or more (almost completely withered)) | 1 (Herbicidal rate of 5% or more and less than 20%) | 0 (Herbicidal rate of 5% or less (almost no effect)) | 0 (Herbicidal rate of 5% or less (almost no effect)) | 5 (Herbicidal rate of 90% or more (almost completely withered)) | 3 (Herbicidal rate of 40% or more and less than 70%) | 5 (Herbicidal rate of 90% or more (almost completely withered)) | 5 (Herbicidal rate of 90% or more (almost completely withered)) | 5 (Herbicidal rate of 90% or more (almost completely withered)) | 0 (Herbicidal rate of 5% or less (almost no effect)) | 5 (Herbicidal rate of 90% or more (almost completely withered)) | 5 (Herbicidal rate of 90% or more (almost completely withered)) | –
Cc1nn(C)c(=O)c(-c2c(-c3ccc(Cl)cc3F)sc3ccc(F)cc23)c1O [2-348] | 0 (Herbicidal rate of 5% or less (almost no effect)) | 3 (Herbicidal rate of 40% or more and less than 70%) | 0 (Herbicidal rate of 5% or less (almost no effect)) | 5 (Herbicidal rate of 90% or more (almost completely withered)) | 4 (Herbicidal rate of 70% or more and less than 90%) | 0 (Herbicidal rate of 5% or less (almost no effect)) | 0 (Herbicidal rate of 5% or less (almost no effect)) | 2 (Herbicidal rate of 20% or more and less than 40%) | 3 (Herbicidal rate of 40% or more and less than 70%) | 3 (Herbicidal rate of 40% or more and less than 70%) | 4 (Herbicidal rate of 70% or more and less than 90%) | 5 (Herbicidal rate of 90% or more (almost completely withered)) | 5 (Herbicidal rate of 90% or more (almost completely withered)) | 4 (Herbicidal rate of 70% or more and less than 90%) | 5 (Herbicidal rate of 90% or more (almost completely withered)) | 5 (Herbicidal rate of 90% or more (almost completely withered)) | –
COc1ccccc1-c1sc2cc(C)ccc2c1-c1c(O)c(C)nn(C)c1=O [3-049] | – | – | – | – | – | – | – | – | – | – | – | – | – | – | – | – | Herbicidal effect, C: oval-leafed pondweed (oval-leafed pondweed [1]; [11]): 3 (Herbicidal rate of 40% or more and less than 70%); herbicidal effect rating, A: late watergrass (late watergrass; AAH 274 g/ha): 4 (Herbicidal rate of 70% or more and less than 90%); herbicidal effect rating, C: oval-leafed pondweed (oval-leafed pondweed [2]; AAH 274 g/ha): 2 (Herbicidal rate of 20% or more and less than 40%); herbicidal effect on rice flat sedge (E) (rice flat sedge; 274 g/ha): 3 (Herbicidal rate of 40% or more and less than 70%); G: green foxtail, herbicidal effect grade (green foxtail [3]; [11]): 3 (Herbicidal rate of 40% or more and less than 70%); I: wild oat, herbicidal effect grade (wild oat; [11]): 3 (Herbicidal rate of 40% or more and less than 70%); J: blackgrass, herbicidal effect grade (blackgrass [4]; [11]): 3 (Herbicidal rate of 40% or more and less than 70%); K: Italian ryegrass, herbicidal effect grade (Italian ryegrass; [11]): 5 (Herbicidal rate of 90% or more (almost completely withered)); N: redroot pigweed, herbicidal effect grade (redroot pigweed [5]; [11]): 4 (Herbicidal rate of 70% or more and less than 90%); P: chickweed, herbicidal effect grade (chickweed [6]; [11]): 4 (Herbicidal rate of 70% or more and less than 90%); R: persian speedwell, herbicidal effect grade (persian speedwell; [11]): 4 (Herbicidal rate of 70% or more and less than 90%); G: green foxtail, herbicidal effect grade (green foxtail [7]; 274 g/ha): 5 (Herbicidal rate of 90% or more (almost completely withered)); H: barnyard grass, herbicidal effect grade (barnyard grass; 274 g/ha): 4 (Herbicidal rate of 70% or more and less than 90%); J: blackgrass, herbicidal effect grade (blackgrass [8]; 274 g/ha): 5 (Herbicidal rate of 90% or more (almost completely withered)); N: redroot pigweed, herbicidal effect grade (redroot pigweed [9]; 274 g/ha): 5 (Herbicidal rate of 90% or more (almost completely withered)); P: chickweed, herbicidal effect grade (chickweed [10]; 274 g/ha): 5 (Herbicidal rate of 90% or more (almost completely withered))
CCOc1ccccc1-c1sc2cc(OC)ccc2c1-c1c(O)c(C)nn(C)c1=O [3-070] | – | – | – | – | – | – | – | – | – | – | – | – | – | – | – | – | Herbicidal effect, C: oval-leafed pondweed (oval-leafed pondweed [1]; [12]): 4 (Herbicidal rate of 70% or more and less than 90%); herbicidal effect rating, A: late watergrass (late watergrass; AAH 80 g/ha): 3 (Herbicidal rate of 40% or more and less than 70%); herbicidal effect rating, C: oval-leafed pondweed (oval-leafed pondweed [2]; AAH 80 g/ha): 4 (Herbicidal rate of 70% or more and less than 90%); herbicidal effect on rice flat sedge (E) (rice flat sedge; 80 g/ha): 5 (Herbicidal rate of 90% or more (almost completely withered)); G: green foxtail, herbicidal effect grade (green foxtail [3]; [12]): 3 (Herbicidal rate of 40% or more and less than 70%); I: wild oat, herbicidal effect grade (wild oat; [12]): 0 (Herbicidal rate of 5% or less (almost no effect)); J: blackgrass, herbicidal effect grade (blackgrass [4]; [12]): 0 (Herbicidal rate of 5% or less (almost no effect)); K: Italian ryegrass, herbicidal effect grade (Italian ryegrass; [12]): 0 (Herbicidal rate of 5% or less (almost no effect)); N: redroot pigweed, herbicidal effect grade (redroot pigweed [5]; [12]): 0 (Herbicidal rate of 5% or less (almost no effect)); P: chickweed, herbicidal effect grade (chickweed [6]; [12]): 4 (Herbicidal rate of 70% or more and less than 90%); R: persian speedwell, herbicidal effect grade (persian speedwell; [12]): 5 (Herbicidal rate of 90% or more (almost completely withered)); G: green foxtail, herbicidal effect grade (green foxtail [7]; 80 g/ha): 4 (Herbicidal rate of 70% or more and less than 90%); H: barnyard grass, herbicidal effect grade (barnyard grass; 80 g/ha): 5 (Herbicidal rate of 90% or more (almost completely withered)); J: blackgrass, herbicidal effect grade (blackgrass [8]; 80 g/ha): 5 (Herbicidal rate of 90% or more (almost completely withered)); N: redroot pigweed, herbicidal effect grade (redroot pigweed [9]; 80 g/ha): 5 (Herbicidal rate of 90% or more (almost completely withered)); P: chickweed, herbicidal effect grade (chickweed [10]; 80 g/ha): 5 (Herbicidal rate of 90% or more (almost completely withered))
